Where two headings read alike, the source gives them in different places.
Tests used:
[1] = tested on: human lung cancer strain NCI-H441; assay: NCI-H441 cell proliferation inhibitory activity (CellTiter-Glo, 4 days); assay type: cell-based; settings: read-out: NCl-H441 IC50
Procedure, shortened: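 Proliferation was scored by […] measured after the reagent was added to cultures kept at 37°C in 5% carbon dioxide.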

[2] = molecular target: HRAS wild-type protein (Homo sapiens, UniProt P01112); assay: Binding to HRAS by surface plasmon resonance (SPR), KD and KD ratio to KRAS
Procedure, shortened: (§1)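 SPR, 30°C: Avi-biotin RAS·GDP captured via Biotin CAPture (~100–300 RU); running buffer HBS pH 7.4, 1 mM DTT, 10 mM MgCl2, 0.01% Tween 20, 10 µM GDP, 4% DMSO. Single-cycle kinetics, 100 µL/min, 75 s injections; 1:1 model → KD.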

[3] = molecular target: GDP-bound KRAS wild-type protein (Homo sapiens, UniProt P01116); assay: Binding to KRAS by surface plasmon resonance (SPR), dissociation constant KD
Procedure, shortened: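 Measured at 30°C: SPR with GDP-loaded, E. coli-expressed biotin-Avi RAS captured (~100–300 RU), ascending 75 s compound injections, HBS pH 7.4 with GDP, MgCl2, 4% DMSO. KD from 1:1 fit.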

[4] = molecular target: GDP-bound NRAS wild-type protein (Homo sapiens, UniProt P01111); assay: Binding to NRAS by surface plasmon resonance (SPR), KD and KD ratio to KRAS
Procedure, shortened: as §1

[5] = ratio of KD for HRAS wild-type protein to KD for KRAS
[6] = ratio of KD for GDP-bound NRAS wild-type protein to KD for KRAS
[7] = 50% proliferation inhibitory concentration, four days
[8] = ratio of KD with respect to HRAS wild-type protein to KD with respect to KRAS
[9] = Single Cycle Kinetics, 1:1 binding model
[10] = ratio of KD with respect to GDP-bound NRAS wild-type protein to KD with respect to KRAS

HRAS wild-type protein, sequence (P01112 whole entry): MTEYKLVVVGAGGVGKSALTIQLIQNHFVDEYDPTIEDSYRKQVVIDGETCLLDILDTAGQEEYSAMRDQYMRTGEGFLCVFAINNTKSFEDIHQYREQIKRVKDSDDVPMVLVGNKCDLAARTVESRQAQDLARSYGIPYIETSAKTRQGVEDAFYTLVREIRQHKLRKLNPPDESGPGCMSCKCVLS
GDP-bound NRAS wild-type protein, sequence (P01111 whole entry): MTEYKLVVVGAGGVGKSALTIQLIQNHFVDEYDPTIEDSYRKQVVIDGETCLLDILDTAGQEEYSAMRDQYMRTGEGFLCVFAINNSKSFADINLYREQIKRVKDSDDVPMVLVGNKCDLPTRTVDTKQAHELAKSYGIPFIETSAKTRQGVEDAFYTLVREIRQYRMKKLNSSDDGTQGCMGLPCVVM
GDP-bound KRAS wild-type protein, sequence (P01116 1-188 isoform P01116-2): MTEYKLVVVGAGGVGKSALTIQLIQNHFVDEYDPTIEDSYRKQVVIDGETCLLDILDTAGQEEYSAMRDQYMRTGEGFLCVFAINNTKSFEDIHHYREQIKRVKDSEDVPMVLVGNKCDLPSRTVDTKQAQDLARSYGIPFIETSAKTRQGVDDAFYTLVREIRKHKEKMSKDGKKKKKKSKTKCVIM

Row | IC50 ([1]; NCI-H441 cells, 4 days) [nM] | Kd ([3]; Single Cycle Kinetics) [nM] | IC50 [1, 7] [nM] | Kd [3, 9] [nM] | Kd ([3]; 1:1 binding model) [nM] | Structure (SMILES) | HRAS /KRAS [2, 5] | NRAS /KRAS [4, 6] | HRAS /KRAS [2, 8] | NRAS /KRAS [4, 10]
1 | 15.9 | 0.076 | – | – | – | CCO[C@@H]1C[C@H]2C(=O)NC3(CC(C)(C)C3)C(=O)N(C)[C@@H](C3CCCC3)C(=O)N(C)[C@H](C(=O)N(C)C)CC(=O)N(C)[C@@H]([C@H](C)OC)C(=O)N[C@@H]([C@@H](C)CC)C(=O)N(C)CC(=O)N(C)[C@H]3C/C=C\CCN(C3=O)[C@@H](Cc3ccc(C(F)(F)F)cc3)C(=O)N(C)CC(=O)N[C@@H](CCc3ccc(C(F)(F)F)c(Cl)c3)C(=O)N2C1 [PP3171] | A (a compound having 10 or more and less than 20 is denoted as A) | A (a compound having 10 or more and less than 20 is denoted as A) | – | –
2 | – | – | 48.2 | 0.25 | – | CC[C@H](C)[C@@H]1NC(=O)[C@H](CC)N(C)C(=O)C[C@@H](C(=O)N(C)C)N(C)C(=O)[C@H](C2CCCC2)N(C)C(=O)C2(CCC2)NC(=O)[C@@H]2C[C@H](C)CN2C(=O)[C@H](CCc2cc(F)c(C(F)(F)F)c(F)c2)NC(=O)CN(C)C(=O)[C@H](CC2CCCCC2)N2CC/C=C\C[C@@H](C2=O)N(C)C(=O)CN(C)C1=O [PP1471] | – | – | A (a compound having 10 or more and less than 20 is denoted as A) | A (a compound having 10 or more and less than 20 is denoted as A)
3 | – | – | 17.8 | 0.48 | – | CCO[C@@H]1C[C@H]2C(=O)NC3(CCC3)C(=O)N(C)[C@@H](C(CC)CC)C(=O)N(C)[C@H](C(=O)N(C)C)CC(=O)N(C)[C@@H](CC(C)C)C(=O)N[C@@H]([C@@H](C)CC)C(=O)N(C)CC(=O)N(C)[C@H]3C/C=C\CCN(C3=O)[C@@H](Cc3ccc(C(F)(F)F)cc3)C(=O)N(C)CC(=O)N[C@@H](CCc3ccc(Cl)c(Cl)c3)C(=O)N2C1 [PP1217] | – | – | A (a compound having 10 or more and less than 20 is denoted as A) | AA (a compound having 20 or more is denoted as AA)
4 | – | – | 29.3 | 0.34 | – | CC[C@H](C)[C@@H]1NC(=O)[C@H](CC(C)C)N(C)C(=O)C[C@@H](C(=O)N2CCOCC2)N(C)C(=O)[C@H](C2CCCC2)N(C)C(=O)C2(CCC2)NC(=O)[C@@H]2CCCN2C(=O)[C@H](CCc2cc(F)c(C(F)(F)F)c(F)c2)NC(=O)CN(C)C(=O)[C@H](Cc2ccc(C(F)(F)F)cc2)N2C[C@H](C)[C@H](C)C[C@@H](C2=O)N(C)C(=O)[C@@H]2CCN2C1=O [PP1367] | – | – | B (a compound having 3 or more and less than 10 is denoted as B) | A (a compound having 10 or more and less than 20 is denoted as A)
5 | 31.9 | 0.25 | – | – | – | CCCOC[C@@H]1NC(=O)C[C@@H](C(=O)N(C)CCC)N(C)C(=O)[C@H](C2CCCC2)N(C)C(=O)C2(CC(C)(C)C2)NC(=O)[C@@H]2C[C@@H](OCC)CN2C(=O)[C@H](CCc2ccc(C(F)(F)F)c(OC)c2)NC(=O)CN(C)C(=O)[C@H](Cc2ccc(C(F)(F)F)cc2)N2CC/C=C\C[C@@H](C2=O)N(C)C(=O)CN(C)C(=O)[C@H]([C@@H](C)CC)NC1=O [PP3449] | A (a compound having 10 or more and less than 20 is denoted as A) | A (a compound having 10 or more and less than 20 is denoted as A) | – | –
6 | 43.3 | 0.51 | – | – | – | CCCOC[C@@H]1NC(=O)C[C@@H](C(=O)N(C)CCC)N(C)C(=O)[C@H](C2CCCC2)N(C)C(=O)C2(CC(C)(C)C2)NC(=O)[C@@H]2C[C@@H](OCC)CN2C(=O)[C@H](CCc2ccc(C(F)(F)F)c(Cl)c2)NC(=O)CN(C)C(=O)[C@H](Cc2ccc(C(F)(F)F)cc2)N2CC/C=C\C[C@@H](C2=O)N(C)C(=O)CN(C)C(=O)[C@H]([C@@H](C)CC)NC1=O [PP3450] | A (a compound having 10 or more and less than 20 is denoted as A) | A (a compound having 10 or more and less than 20 is denoted as A) | – | –
7 | 13.2 | 0.16 | – | – | – | CCC[C@@H]1NC(=O)C[C@@H](C(=O)N(C)C)N(C)C(=O)[C@H](C2CCCC2)N(C)C(=O)C2(CC(C)(C)C2)NC(=O)[C@@H]2C[C@@H](OCC)CN2C(=O)[C@H](CCc2cc(F)c(C(F)(F)F)c(F)c2)NC(=O)CN(C)C(=O)[C@H](Cc2ccc(C(F)(F)F)cc2)N2CC/C=C\C[C@@H](C2=O)N(C)C(=O)CN(C)C(=O)[C@H]([C@@H](C)CC)NC1=O [PP3457] | A (a compound having 10 or more and less than 20 is denoted as A) | AA (a compound having 20 or more is denoted as AA) | – | –
8 | – | – | 11.2 | 0.12 | – | CCO[C@@H]1C[C@H]2C(=O)NC3(CCC3)C(=O)N(C)[C@@H](C3CCCC3)C(=O)N(C)[C@H](C(=O)N(C)C)CC(=O)N(C)[C@@H](CC(C)C)C(=O)N[C@@H]([C@@H](C)CC)C(=O)N(C)CC(=O)N(C)[C@H]3C/C=C\CCN(C3=O)[C@@H](CC3CCCCC3)C(=O)N(C)CC(=O)N[C@@H](CCc3cc(F)c(C(F)(F)F)c(F)c3)C(=O)N2C1 [PP1467] | – | – | A (a compound having 10 or more and less than 20 is denoted as A) | A (a compound having 10 or more and less than 20 is denoted as A)
9 | – | – | 38.8 | 0.87 | – | CCO[C@@H]1C[C@H]2C(=O)NC3(CCC3)C(=O)N(C)[C@@H](C(CC)CC)C(=O)N(C)[C@H](C(=O)N(C)C)CC(=O)N(C)[C@@H](CC3CC3)C(=O)N[C@@H]([C@@H](C)CC)C(=O)N(C)CC(=O)N(C)[C@H]3C/C=C\CCN(C3=O)[C@@H](CC3CCCCC3)C(=O)N(C)CC(=O)N[C@@H](CCc3cc(F)c(C(F)(F)F)c(F)c3)C(=O)N2C1 [PP1428] | – | – | A (a compound having 10 or more and less than 20 is denoted as A) | AA (a compound having 20 or more is denoted as AA)
10 | 84.8 | 1.7 | – | – | – | CCC[C@H]1C(=O)N[C@@H]([C@@H](C)CC)C(=O)N2CCCC[C@H]2C(=O)N(C)[C@H]2C/C=C\CCN(C2=O)[C@@H](Cc2ccc(C)cc2)C(=O)N(C)CC(=O)N[C@@H](CCc2ccc(C(F)(F)F)c(Cl)c2)C(=O)N2C[C@H](OCC)C[C@H]2C(=O)N(C)C2(CCC2)C(=O)N(C)[C@@H](C2CCCC2)C(=O)N(C)[C@H](C(=O)N(C)C)CC(=O)N1C [PP3275] | B (a compound having 3 or more and less than 10 is denoted as B) | B (a compound having 3 or more and less than 10 is denoted as B) | – | –
11 | 40.2 | 0.97 | – | – | – | CCCO[C@@H]1C[C@H]2C(=O)NC3(CC(C)(C)C3)C(=O)N(C)[C@@H](C3CCCC3)C(=O)N(C)[C@H](C(=O)N(C)CC)CC(=O)N(C)[C@@H](COCC)C(=O)N[C@@H]([C@@H](C)CC)C(=O)N3CCC[C@H]3C(=O)N(C)[C@H]3C/C=C\CCN(C3=O)[C@@H](Cc3ccc(C)cc3)C(=O)N(C)CC(=O)N[C@@H](CCc3cc(F)c(C(F)(F)F)c(F)c3)C(=O)N2C1 [PP3459] | A (a compound having 10 or more and less than 20 is denoted as A) | A (a compound having 10 or more and less than 20 is denoted as A) | – | –
12 | 195 | – | – | – | 4.1 | CCC[C@H]1C(=O)N[C@@H](CC(C)C)C(=O)N(C2CC2)CC(=O)N(C)[C@H]2C/C=C\CCN(C2=O)[C@@H](Cc2ccc(C)cc2)C(=O)N(C)CC(=O)N[C@@H](CCc2ccc(C(F)(F)F)c(OC)c2)C(=O)N2C[C@H](OCC)C[C@H]2C(=O)NC2(CCC2)C(=O)N(C)[C@@H](C2CCCC2)C(=O)N(C)[C@H](C(=O)N(C)C)CC(=O)N1C [PP2534] | B (a compound having 3 or more and less than 10 is denoted as B) | A (a compound having 10 or more and less than 20 is denoted as A) | – | –

Source: patent EP4603105A1, “PHARMACEUTICAL COMPOSITION CONTAINING CYCLIC COMPOUND HAVING SELECTIVE KRAS INHIBITORY EFFECT AGAINST HRAS AND NRAS” (CHUGAI SEIYAKU KABUSHIKI KAISHA, priority 2022, dated 2024)
